Test results: PubChem BioAssay (NCI)
Several values for one entry are separate records, joined by “and”; a condition that tells them apart may be missing. Identical values can stand only once.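 Each compound was tested at five concentrations against cells in 96-well plates for 48 hours. GI50 marks 50% less growth. TGI marks complete inhibition of growth.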

Key:
Assay in all cases: NCI anticancer screen, dose series, 48 h
[1] = test system: 786-0 renal
[2] = test system: A498 renal
[3] = test system: A549 NSCLC
[4] = test system: ACHN renal
[5] = test system: BT-549 breast
[6] = test system: CAKI-1 renal
[7] = test system: CCRF-CEM leukemia
[8] = test system: COLO 205 colon
[9] = test system: DU-145 prostate
[10] = test system: EKVX NSCLC
[11] = test system: HCC-2998 colon
[12] = test system: HCT-116 colon
[13] = test system: HCT-15 colon
[14] = test system: HL-60(TB) leukemia
[15] = test system: HOP-62 NSCLC
[16] = test system: HOP-92 NSCLC
[17] = test system: HS 578T breast
[18] = test system: HT29 colon
[19] = test system: IGROV1 ovarian
[20] = test system: K-562 leukemia
[21] = test system: KM12 colon
[22] = test system: LOX IMVI melanoma
[23] = test system: M14 melanoma
[24] = test system: MALME-3M melanoma
[25] = test system: MCF7 breast
[26] = test system: MDA-MB-231 breast
[27] = test system: MDA-MB-435
[28] = test system: MOLT-4 leukemia
[29] = test system: NCI-H226 lung
[30] = test system: NCI-H23 lung
[31] = test system: NCI-H460 lung
[32] = test system: NCI-H522 lung
[33] = test system: NCI/ADR-RES ovarian
[34] = test system: OVCAR-3 ovarian
[35] = test system: OVCAR-4 ovarian
[36] = test system: OVCAR-5 ovarian
[37] = test system: OVCAR-8 ovarian
[38] = test system: PC-3 prostate
[39] = test system: RPMI-8226 leukemia
[40] = test system: RXF 393 renal
[41] = test system: SF-268 CNS
[42] = test system: SF-295 CNS
[43] = test system: SF-539 CNS
[44] = test system: SK-MEL-2 melanoma
[45] = test system: SK-MEL-28 melanoma
[46] = test system: SK-MEL-5 melanoma
[47] = test system: SK-OV-3 ovarian
[48] = test system: SN12C renal
[49] = test system: SNB-19 CNS
[50] = test system: SNB-75 CNS
[51] = test system: SR leukemia
[52] = test system: SW-620 colon
[53] = test system: T-47D breast
[54] = test system: TK-10 renal
[55] = test system: U251 CNS
[56] = test system: UACC-62 melanoma
[57] = test system: UO-31 renal
[58] = test system: UACC-257 melanoma

SMILES: CC[C@H](C)[C@H](NC(=O)[C@H]1CCCCN1C)C(=O)N(C)[C@H](C[C@@H](OC(C)=O)c1nc(C(=O)NC23C4C5C2C2C3C4C52C(=O)OC)cs1)C(C)C (stereo partly drawn)
- GI50 [1]: 3.59 nM and 2.5 nM
- TGI [1]: > 25000 nM
- GI50 [2]: 13.9 nM and 3.17 nM
- TGI [2]: 133 nM
- GI50 [3]: 8.79 nM and 2.5 nM
- TGI [3]: > 25000 nM
- GI50 [4]: 18.9 nM and 2.5 nM
- TGI [4]: 4030 nM
- GI50 [5]: 3.44 nM and 2.5 nM
- TGI [5]: 80.1 nM and 26.8 nM
- GI50 [6]: 16 nM
- GI50 [7]: 2.7 nM and 2.5 nM
- TGI [7]: 3330 nM
- GI50 [8]: 3.03 nM and 2.5 nM
- TGI [8]: 71.5 nM and 11.1 nM
- GI50 [9]: 1.13 nM and 2.5 nM
- TGI [9]: 31 nM
- GI50 [10]: 27 nM and 11 nM
- TGI [10]: > 25000 nM
- GI50 [11]: 3.36 nM and 2.5 nM
- TGI [11]: 14300 nM
- GI50 [12]: 3.55 nM and 2.5 nM
- TGI [12]: 88 nM
- GI50 [13]: 7.63 nM and 3.02 nM
- TGI [13]: > 25000 nM
- GI50 [14]: 0.317 nM and < 2.5 nM
- TGI [14]: 1.96 nM and < 2.5 nM
- GI50 [15]: 2.65 nM and 2.5 nM
- TGI [15]: > 25000 nM
- GI50 [16]: 5440 nM
- TGI [16]: > 25000 nM
- GI50 [17]: 0.754 nM and 2.5 nM
- TGI [17]: > 25000 nM
- GI50 [18]: 1.14 nM and 2.5 nM
- TGI [18]: 61.2 nM and 49.3 nM
- GI50 [19]: 2.42 nM and 2.5 nM
- TGI [19]: 20100 nM
- GI50 [20]: 0.952 nM and 2.5 nM
- TGI [20]: > 25000 nM
- GI50 [21]: 3.09 nM and 2.5 nM
- TGI [21]: > 25000 nM
- GI50 [22]: 1.08 nM and 2.5 nM
- TGI [22]: > 25000 nM
- GI50 [23]: 7.13 nM and < 2.5 nM
- TGI [23]: < 2.5 nM
- GI50 [24]: 2.88 nM and 2.5 nM
- TGI [24]: > 25000 nM
- GI50 [25]: 0.557 nM and 2.5 nM
- TGI [25]: > 25000 nM
- GI50 [26]: 4.29 nM and 2.5 nM
- TGI [26]: > 25000 nM
- GI50 [27]: 0.349 nM and < 2.5 nM
- TGI [27]: 2.78 nM and < 2.5 nM
- GI50 [28]: 4.85 nM and 2.5 nM
- TGI [28]: > 25000 nM
- GI50 [29]: 25.6 nM and 22.2 nM
- TGI [29]: 1150 nM
- GI50 [30]: 4.14 nM and 2.5 nM
- TGI [30]: > 25000 nM
- GI50 [31]: 3 nM and 2.5 nM
- TGI [31]: > 25000 nM
- GI50 [32]: 0.331 nM and < 2.5 nM
- GI50 [33]: 67.6 nM
- GI50 [34]: 0.489 nM and < 2.5 nM
- GI50 [35]: 50.6 nM
- TGI [35]: > 25000 nM
- GI50 [36]: 70.2 nM and 70.7 nM
- TGI [36]: > 25000 nM
- GI50 [37]: 2.04 nM and 2.5 nM
- TGI [37]: > 25000 nM
- GI50 [38]: 2.63 nM and 2.5 nM
- TGI [38]: > 25000 nM
- GI50 [39]: 1.97 nM and 2.5 nM
- TGI [39]: 7000 nM
- GI50 [40]: 0.768 nM
- TGI [40]: 9.06 nM
- GI50 [41]: 2.79 nM and 2.5 nM
- TGI [41]: > 25000 nM
- GI50 [42]: 2.53 nM and 2.5 nM
- TGI [42]: 94.4 nM and 282 nM
- GI50 [43]: 1.15 nM and 2.5 nM
- TGI [43]: 11.4 nM and 9.41 nM
- GI50 [44]: 1.85 nM and 2.5 nM
- TGI [44]: 4.52 nM
- GI50 [45]: 3120 nM
- TGI [45]: > 25000 nM
- GI50 [46]: 0.838 nM and 2.5 nM
- TGI [46]: 24.1 nM and 10.2 nM
- GI50 [47]: 10.2 nM and 2.5 nM
- TGI [47]: > 25000 nM
- GI50 [48]: 1.99 nM and 2.5 nM
- TGI [48]: 9330 nM
- GI50 [49]: 3.96 nM and 2.5 nM
- TGI [49]: > 25000 nM
- GI50 [50]: 1.25 nM and 2.5 nM
- TGI [50]: > 25000 nM
- TGI [51]: 5980 nM
- GI50 [52]: 1.49 nM and 2.5 nM
- TGI [52]: > 25000 nM
- GI50 [53]: 2.75 nM
- GI50 [54]: 4.24 nM
- GI50 [55]: 4.24 nM and 2.5 nM
- TGI [55]: > 25000 nM
- GI50 [56]: 1.1 nM and 2.5 nM
- TGI [56]: 20100 nM
- GI50 [57]: 35.8 nM and 11.4 nM
- TGI [57]: > 25000 nM

SMILES: CCN(CC)CCOc1ccc(NC(=O)C(C(C)C)N2C(=O)/C(=C/c3ccc(Br)cc3)SC2=S)cc1 (stereo not drawn)
- GI50 [1]: 1760 nM
- TGI [1]: 3220 nM
- GI50 [2]: 1520 nM
- TGI [2]: 14600 nM
- GI50 [3]: 3370 nM
- TGI [3]: 12500 nM
- GI50 [4]: 1780 nM
- TGI [4]: 3250 nM
- GI50 [5]: 14400 nM
- TGI [5]: 28500 nM
- GI50 [6]: 4380 nM
- TGI [6]: 17100 nM
- GI50 [7]: 2820 nM
- TGI [7]: 9520 nM
- GI50 [8]: 2640 nM
- TGI [8]: 6880 nM
- GI50 [9]: 4440 nM
- TGI [9]: 14700 nM
- GI50 [10]: 5240 nM
- TGI [10]: 18800 nM
- GI50 [11]: 2210 nM
- TGI [11]: 5130 nM
- GI50 [12]: 1860 nM
- TGI [12]: 3470 nM
- GI50 [13]: 2010 nM
- TGI [13]: 4310 nM
- GI50 [14]: 4960 nM
- TGI [14]: 20800 nM
- GI50 [15]: 2360 nM
- TGI [15]: 7110 nM
- GI50 [16]: 2530 nM
- TGI [16]: 13500 nM
- GI50 [17]: 12100 nM
- TGI [17]: 35100 nM
- GI50 [18]: 2880 nM
- TGI [18]: 8510 nM
- GI50 [19]: 2610 nM
- TGI [19]: 8030 nM
- GI50 [20]: 2240 nM
- TGI [20]: 5860 nM
- GI50 [21]: 3190 nM
- TGI [21]: 11300 nM
- GI50 [22]: 1750 nM
- TGI [22]: 3230 nM
- GI50 [23]: 2070 nM
- TGI [23]: 4270 nM
- GI50 [24]: 1710 nM
- TGI [24]: 3300 nM
- GI50 [25]: 1990 nM
- TGI [25]: 4340 nM
- GI50 [26]: 1850 nM
- TGI [26]: 3670 nM
- GI50 [27]: 2100 nM
- TGI [27]: 4410 nM
- GI50 [28]: 2680 nM
- TGI [28]: 9380 nM
- GI50 [29]: 16200 nM
- TGI [29]: 37300 nM
- GI50 [30]: 3740 nM
- TGI [30]: 13900 nM
- GI50 [31]: 1850 nM
- TGI [31]: 3510 nM
- GI50 [32]: 2030 nM
- TGI [32]: 4550 nM
- GI50 [33]: 3930 nM
- TGI [33]: 14300 nM
- GI50 [34]: 1950 nM
- TGI [34]: 4080 nM
- GI50 [35]: 2250 nM
- TGI [35]: 5670 nM
- GI50 [36]: 2890 nM
- TGI [36]: 10400 nM
- GI50 [37]: 3240 nM
- TGI [37]: 10300 nM
- GI50 [38]: 3170 nM
- TGI [38]: 12100 nM
- GI50 [39]: 2350 nM
- TGI [39]: 5730 nM
- GI50 [40]: 5600 nM
- TGI [40]: 19100 nM
- GI50 [41]: 2270 nM
- TGI [41]: 5850 nM
- GI50 [42]: 3410 nM
- TGI [42]: 11700 nM
- GI50 [43]: 1870 nM
- TGI [43]: 3550 nM
- GI50 [44]: 14900 nM
- TGI [44]: 30900 nM
- GI50 [45]: 2070 nM
- TGI [45]: 4350 nM
- GI50 [46]: 3710 nM
- TGI [46]: 12800 nM
- GI50 [47]: 15900 nM
- TGI [47]: 31700 nM
- GI50 [48]: 1710 nM
- TGI [48]: 3290 nM
- GI50 [49]: 2300 nM
- TGI [49]: 6090 nM
- GI50 [50]: 7820 nM
- TGI [50]: 21100 nM
- GI50 [51]: 2160 nM
- TGI [51]: 6430 nM
- GI50 [52]: 1970 nM
- TGI [52]: 4020 nM
- GI50 [53]: 3630 nM
- TGI [53]: 19000 nM
- GI50 [54]: 2170 nM
- TGI [54]: 5090 nM
- GI50 [55]: 1940 nM
- TGI [55]: 4080 nM
- GI50 [58]: 2200 nM
- TGI [58]: 5140 nM
- GI50 [56]: 1810 nM
- TGI [56]: 3530 nM
- GI50 [57]: 2720 nM
- TGI [57]: 12600 nM
